In brackets after ≈: the same amount, converted by molar mass. Where two headings read alike, the source gives them in different places.
Experiments:
Assay type in all cases: cell-based
[1] = test system: Streptococcus pneumoniae (ATCC6305); assay: Microtitre plate assay, IC90 determination, SPN 6305; conditions: 90% inhibitory concentration for bacterial growth, resazurin
Method: (§1) The bacteria used in this study were grown overnight in flasks containing 100 ml Mueller-Hinton Broth (Becton Dickinson—cat. no. 275730) in sterile de-ionized water, with shaking, at 37° C. Stocks (0.5 ml/tube) were stored at −70° C. until use. Bacteria titrations were performed in microtiter plates to detect the TCID50, in which the TCID50 represents the dilution that gives rise to bacterial growth in 50% of inoculated cultures.
(§2) In general, an inoculum level of approximately 100 TCID50 was used for susceptibility testing.
(§3) Flat-bottom, sterile 96-well plastic microtiter plates were filled with 180 μl of sterile deionized water, supplemented with 0.25% BSA. Subsequently, stock solutions (7.8× final test concentration) of compounds were added in 45 μl volumes in column 2 Serial five-fold dilutions (45 μl in […]) were made directly in the microtiter plates from column 2 to reach column 11. Untreated control samples with (column 1) and without (column 12) inoculum were included in each microtiter plate. Depending on the bacteria type, approximately 10 to 60 CFU per well of bacteria inoculum (100 TCID50), in a volume of 100 μl in 2.8× Mueller-Hinton broth medium, was added to the rows A to H, except column 12. The same volume of broth medium without inoculum was added to column 12 in row A to H. The cultures were incubated at 37° C. for 24 hours under a normal atmosphere (incubator with open air valve and continuous ventilation). At the end of incubation, one day after inoculation, the bacterial growth was quantitated fluorometrically. Therefore resazurin (0.6 mg/ml) was added in a volume of 20 μl to all wells 3 hours after inoculation, and the plates were re-incubated overnight. A change in colour from blue to pink indicated the growth of bacteria. The fluorescence was read in a computer-controlled fluorometer (Cytofluor Biosearch) at an excitation wavelength of 530 nm and an emission wavelength of 590 nm. The % growth inhibition achieved by the compounds was calculated according to standard methods.

[2] = test system: Staphylococcus aureus (ATCC29213); assay: Microtitre plate assay, IC90 determination, STA 29213
Method: as §1, §2, §3

M. Smegmatis ATCC607 = assay: In-vitro anti-bacterial activity against strain M. smegmatis ATCC607; conditions: for IC90: Mycolicibacterium smegmatis
Method: Flat-bottom, sterile 96-well plastic microtiter plates were filled with 180 μl of sterile deionized water, supplemented with 0.25% BSA. Subsequently, stock solutions (7.8× final test concentration) of compounds were added in 45 μl volumes to a series of duplicate wells in column 2 so as to allow evaluation of their effects on bacterial growth. Serial five-fold dilutions (45 μl in 180 μl) were made directly in the microtiter plates from column 2 to 11 using a customised robot system (Zymark Corp., Hopkinton, Mass.). Pipette tips were changed after every 3 dilutions to minimize pipetting errors with high hydrophobic compounds. Untreated control samples with (column 1) and without (column 12) inoculum were included in each microtiter plate. Approximately 250 CFU per well of bacteria inoculum, in a volume of 100 μl in 2.8× Mueller-Hinton broth medium, was added to the rows A to H, except column 12. The same volume of broth medium without inoculum was added to column 12 in row A to H. The cultures were incubated at 37° C. for 48 hours in a humidified 5% CO2 atmosphere (incubator with open air valve and continuous ventilation). At the end of incubation, two days after inoculation, the bacterial growth was quantitated fluorometrically. Therefore Alamar Blue (10×) was added to all wells in a volume of 20 μl and plates were incubated for another 2 hours at […]
The fluorescence was read in a computer-controlled fluorometer (Cytofluor, Biosearch) at an excitation wavelength of 530 nm and an emission wavelength of 590 nm (gain 30).

[3] = Streptococcus pneumoniae, ATCC6305, read-out: IC90 (μg/ml) SPN 6305, Streptococcus pneumoniae ATCC6305
[4] = Staphylococcus aureus, ATCC29213, read-out: IC90 (μg/ml) STA 29213
[5] = ATCC607, 48 h, read-out: M. smegmatis IC90 (μg/ml), 90% inhibitory concentration for bacterial growth, Alamar Blue fluorescence
[6] = Streptococcus pneumoniae ATCC6305
[7] = Staphylococcus aureus ATCC29213, 90% inhibitory concentration for bacterial growth, resazurin
[8] = 90% inhibitory concentration for bacterial growth, 48 hours, Alamar Blue fluorescence
[9] = Staphylococcus aureus ATCC29213, 90% inhibitory concentration for bacterial growth, resazurin, read-out: IC90 (μg/ml) STA 29213
[10] = ATCC607, 90% inhibitory concentration for bacterial growth, 48 hours, Alamar Blue fluorescence, read-out: M. smegmatis IC90
[11] = Streptococcus pneumoniae ATCC6305, read-out: IC90 (μg/ml) SPN 6305

Row | Compound | IC90 [1, 3] | IC90 [2, 4] | IC90 (M. Smegmatis ATCC607; [5]) | IC90 (μg/ml) SPN 6305 [1, 6] | IC90 (μg/ml) STA 29213 [2, 7] | M. smegmatis IC90 (M. Smegmatis ATCC607; [8]) | other results
1 | COc1nc2ccc(-c3ccco3)cc2cc1/C(=C(/CCN(C)C)c1cccc2ccccc12)c1ccccc1 [Compound 22] | 20.9 µg/mL (≈ 39.8 µM) | 20.9 µg/mL (≈ 39.8 µM) | 1.66 µg/mL (≈ 3.16 µM) |  |  |  | 
2 | N#Cc1ccc(/C(=C(\CCCCN2CCCCC2)c2ccc(Cl)cc2)c2cnc3ccccc3c2)cc1 [Compound 55] | 10.1 µg/mL (≈ 20 µM) | 8.02 µg/mL (≈ 15.8 µM) | 8.02 µg/mL (≈ 15.8 µM) |  |  |  | 
3 | COc1nc2ccc(Br)cc2cc1C(=C(CCn1ccnc1)c1ccccc1)c1ccccc1 (single isomer, unassigned) [Compound 6] |  |  |  | 10.18 µg/mL (≈ 19.9 µM) | 10.18 µg/mL (≈ 19.9 µM) | 10.18 µg/mL | 
4 | COc1nc2ccc(Br)cc2cc1C(=C(CCN1CCOCC1)c1ccccc1)c1ccccc1 (mixture of isomers) [Compound 43] |  |  |  | 8.39 µg/mL | 52.95 µg/mL | 4.21 µg/mL | 
5 | COc1nc2ccc(Br)cc2cc1C(=C(CCn1ccnc1)c1ccccc1)c1ccccc1 (single isomer, unassigned) [Compound 5] |  |  |  | 36.14 µg/mL (≈ 70.8 µM) | 36.14 µg/mL (≈ 70.8 µM) | 5.1 µg/mL | 
6 | COc1ccc(/C(=C(\CCCCN2CCCCC2)c2ccc(Cl)cc2)c2cnc3ccccc3c2)cc1 [Compound 58] | 12.8 µg/mL (≈ 25.1 µM) | 10.2 µg/mL (≈ 20 µM) | 8.1 µg/mL (≈ 15.8 µM) |  |  |  | 
7 | CCN(CC)CC=C(c1cccc2ccccc12)C(c1ccccc1)c1cc2cc(Br)ccc2nc1OC (racemic) [Compound 28] |  |  |  | 2.01 µg/mL (≈ 3.55 µM) | 8.96 µg/mL (≈ 15.8 µM) | 1.79 µg/mL | 
8 | CSc1nc2ccc(Br)cc2cc1/C(=C(\CCN(C)C)c1ccccc1)c1ccccc1 [Compound 3] | 1.59 µg/mL (≈ 3.16 µM) | 7.98 µg/mL (≈ 15.8 µM) | 2 µg/mL (≈ 3.97 µM) |  |  |  | 
9 | COc1nc2ccc(-c3ccccc3)cc2cc1C(=C(CCn1ccnc1)c1ccccc1)c1ccccc1 [Compound 46] |  |  |  | 8.05 µg/mL (≈ 15.9 µM) | 9.03 µg/mL (≈ 17.8 µM) | 1.61 µg/mL | 
10 | COc1nc2ccc(Br)cc2cc1C(/C(=C\CCCN1CCCN(C)CC1)c1ccc2ccccc2c1)c1ccccc1 (stereo not shown) [Compound 62] |  |  |  |  |  |  | IC90 [2, 9]: 22.5 µg/mL (≈ 35.5 µM); IC90 (M. Smegmatis ATCC607; [10]): 8.97 µg/mL (≈ 14.1 µM)
11 | COc1nc2ccc(Br)cc2cc1C(/C(=C/C#N)CCCCN1CC2CC1CN2Cc1ccccc1)c1ccccc1 (stereo not shown) [Compound 60] |  |  |  |  |  |  | IC90 [1, 11]: 2.48 µg/mL (≈ 3.99 µM); IC90 [2, 9]: 1.97 µg/mL (≈ 3.17 µM); IC90 (M. Smegmatis ATCC607; [10]): 1.97 µg/mL (≈ 3.17 µM)
12 | COc1nc2ccc(Br)cc2cc1C(=C(CCn1cncn1)c1ccccc1)c1ccccc1 (single isomer, unassigned) [Compound 42] |  |  |  |  |  | 22.84 µg/mL | 
13 | COc1nc2ccc(Br)cc2cc1C(=C(CCN1CCN(C)CC1)c1ccccc1)c1ccccc1 (mixture of isomers) [Compound 44] |  |  |  | 10.82 µg/mL | 10.82 µg/mL | 4.31 µg/mL | 
14 | COc1nc2ccc(Br)cc2cc1/C(=C(/CCN(C)C)c1ccccc1)c1ccc(Cl)cc1 [Compound 1] | 1.65 µg/mL (≈ 3.16 µM) | 8.27 µg/mL (≈ 15.8 µM) | 1.65 µg/mL (≈ 3.16 µM) |  |  |  | 
15 | COc1nc2ccc(-c3cc4ccccc4s3)cc2cc1C(C(=CCN(C)C)c1cccc2ccccc12)c1ccccc1 (mixture of isomers) [Compound 34] |  |  |  | 10.51 µg/mL |  | 2.35 µg/mL | 
16 | CCN(C)CCC/C=C(\CCc1ccccc1)C(c1ccccc1)c1cc2cc(Br)ccc2nc1OC (stereo not shown) [Compound 61] |  |  |  |  |  |  | IC90 [1, 11]: 1.76 µg/mL (≈ 3.16 µM); IC90 [2, 9]: 1.76 µg/mL (≈ 3.16 µM); IC90 (M. Smegmatis ATCC607; [10]): 1.76 µg/mL (≈ 3.16 µM)
17 | Clc1ccc(/C(CCCCN2CCCCC2)=C(/c2ccc(Cl)cc2)c2cnc3ccccc3c2)cc1 [Compound 52] | 10.3 µg/mL (≈ 20 µM) | 10.3 µg/mL (≈ 20 µM) | 1.63 µg/mL (≈ 3.16 µM) |  |  |  | 
18 | COc1ccc(/C(=C(\CCCCN2CCCCC2)c2ccccc2)c2cnc3ccccc3c2)cc1 [Compound 57] | 9.51 µg/mL (≈ 20 µM) |  | 7.55 µg/mL (≈ 15.8 µM) |  |  |  | 
